Results: patent US20220372448A1, “CELL LINE AND PRODUCING METHOD THEREOF” (University of Yamanashi, priority 2021, published 2022)

System: replicon replication in VeroE6/Rep #3 cells
Assay type: cell-based, SARS-CoV-2
Details: 72 hours

CC(C)C(=O)OC[C@H]1O[C@@H](n2ccc(NO)nc2=O)[C@H](O)[C@@H]1O [EIDD-2801, molnupiravir]
effectiveness rate = (Replicon replication level)/(Cell survival rate): about 0.2 | luciferase activity (index of the replicon replication level) compared with DMSO negative control: significantly decreased
